Experiments:
Experiment in all cases: relative viability (nuclei count vs DMSO), 5 days (fraction); higher = more cells survive
[1] = compound: CN1CCC(CNc2ccc3ncc(-c4cccc(OC(F)(F)F)c4)n3n2)CC1 [SGI-1776] + COc1cccc2cc(-c3nc([C@H]4CC[C@H](C(=O)O)CC4)n4ncnc(N)c34)[nH]c12 [OSI-027] (partner 0.5 µM)
Outline: (§1)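 Lung cancer cell lines were pin-tool dosed in 1536-well plates on the day after seeding, with either a lone drug or a fixed anchor-drug dose plus five library-drug doses (not always all listed) in √10 steps. Nuclei were counted on 4× images after 5 days. Relative viability is the ratio of treated-well to vehicle-well nuclei counts, with each value a median of duplicate plates.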

[2] = compound: C1COCCN1C2=NC(=NC3=C2OC4=C3C=CC=N4)C5=CC(=CC=C5)NC(=O)C6=CN=C(C=C6)N + CCNC(=O)c1noc(-c2cc(C(C)C)c(O)cc2O)c1-c1ccc(CN2CCOCC2)cc1 [Luminespib] (partner 0.01 µM)
Outline: as §1

[3] = compound: C1COCCN1C2=NC(=NC3=C2OC4=C3C=CC=N4)C5=CC(=CC=C5)NC(=O)C6=CN=C(C=C6)N + Cc1nc(Nc2ncc(C(=O)Nc3c(C)cccc3Cl)s2)cc(N2CCN(CCO)CC2)n1 [Dasatinib] (partner 0.075 µM)
Outline: as §1

[4] = compound: Nc1ccccc1NC(=O)c1ccc(CNC(=O)OCc2cccnc2)cc1 [Entinostat] + O=C(CCCCCCC(=O)Nc1ccccc1)NO [Vorinostat] (partner 1 µM)
Outline: as §1

| Cell Line | relative viability ([1]; first compound 0.08 µM) | relative viability ([1]; first compound 0.8 µM) | relative viability ([1]; first compound 2.53 µM) | relative viability ([1]; first compound 8 µM) | relative viability ([2]; first compound 0.02 µM) | relative viability ([2]; first compound 0.06325 µM) | relative viability ([2]; first compound 0.2 µM) | relative viability ([2]; first compound 0.6325 µM) | relative viability ([2]; first compound 2 µM) | relative viability ([3]; first compound 0.02 µM) | relative viability ([3]; first compound 0.06325 µM) | relative viability ([3]; first compound 0.2 µM) | relative viability ([3]; first compound 0.6325 µM) | relative viability ([3]; first compound 2 µM) | relative viability ([4]; first compound 0.02 µM) | relative viability ([4]; first compound 0.06325 µM) | relative viability ([4]; first compound 0.2 µM) | relative viability ([4]; first compound 0.6325 µM) | relative viability ([4]; first compound 2 µM) |
| --- | --- | --- | --- | --- | --- | --- | --- | --- | --- | --- | --- | --- | --- | --- | --- | --- | --- | --- | --- |
| HOP-62 | 0.882 | 0.866 | 0.802 | 0.81 | 0.882 | 0.983 | 0.833 | 0.863 | 0.44 | 0.765 | 0.743 | 0.547 | 0.574 | 0.323 | 0.565 | 0.534 | 0.494 | 0.228 | 0.132 |
| IA-LM |  |  |  |  |  |  |  |  |  |  |  |  |  |  | 0.972 | 0.997 | 1.13 | 0.863 | 0.682 |
| LC-2-ad | 0.918 | 0.806 | 0.973 | 0.548 | 0.857 | 1.08 | 1.02 | 1.06 | 0.872 | 0.629 | 0.716 | 0.52 | 0.435 | 0.417 | 0.666 | 0.686 | 0.695 | 0.356 | 0.257 |
| LCLC-97TM1 | 0.597 | 0.487 | 0.59 | 0.487 | 0.787 | 0.908 | 0.739 | 0.826 | 0.566 | 0.865 | 0.939 | 0.762 | 0.914 | 0.675 | 0.65 | 0.742 | 0.588 | 0.398 | 0.161 |
| LCLC-103H | 0.481 | 0.446 | 0.457 | 0.425 | 0.99 | 1.04 | 0.89 | 1.1 | 0.461 | 0.433 | 0.468 | 0.479 | 0.514 | 0.344 | 0.804 | 0.806 | 0.703 | 0.482 | 0.447 |
| LK-2 | 0.247 | 0.216 | 0.201 | 0.159 | 0.193 | 0.196 | 0.201 | 0.169 | 0.175 | 0.253 | 0.284 | 0.245 | 0.245 | 0.283 | 0.237 | 0.293 | 0.279 | 0.188 | 0.154 |
| LOU-NH91 | 0.777 | 0.726 | 0.826 | 0.56 | 0.309 | 0.389 | 0.346 | 0.315 | 0.306 | 0.537 | 0.546 | 0.587 | 0.56 | 0.357 | 0.971 | 0.909 | 0.872 | 0.718 | 0.56 |
| LU99A | 0.294 | 0.286 | 0.303 | 0.262 | 0.265 | 0.221 | 0.235 | 0.207 | 0.266 | 0.538 | 0.533 | 0.37 | 0.347 | 0.182 | 0.521 | 0.499 | 0.503 | 0.388 | 0.326 |
| LXF-289 | 0.794 | 0.843 | 0.764 | 0.707 | 0.598 | 0.798 | 0.783 | 0.494 | 0.321 | 0.228 | 0.249 | 0.219 | 0.17 | 0.175 | 0.784 | 0.784 | 0.731 | 0.526 | 0.381 |
| NCI-H23 | 0.676 | 0.547 | 0.724 | 0.437 | 0.185 | 0.203 | 0.191 | 0.208 | 0.212 | 0.82 |  | 0.582 | 0.724 | 0.482 | 0.601 | 0.681 | 0.496 | 0.271 | 0.198 |
| NCI-H322M | 0.514 | 0.54 | 0.661 | 0.475 | 0.988 | 0.981 | 0.742 | 0.735 | 0.484 | 0.251 | 0.251 | 0.241 | 0.274 | 0.234 | 0.967 | 0.975 | 0.981 | 0.876 | 0.808 |
| NCI-H358 | 0.747 | 0.856 | 0.663 | 0.304 | 0.287 | 0.254 | 0.353 | 0.426 | 0.193 |  | 0.134 | 0.109 | 0.152 | 0.15 | 0.67 | 0.618 | 0.947 | 0.211 | 0.117 |
| NCI-H441 | 0.58 | 0.559 | 0.743 | 0.388 | 0.284 | 0.314 | 0.324 | 0.501 | 0.25 | 0.685 | 0.783 | 0.609 | 0.486 | 0.415 | 0.695 | 0.61 | 0.465 | 0.261 | 0.161 |
| NCI-H460 | 0.68 | 0.587 | 0.646 | 0.255 | 0.0333 | 0.035 | 0.0284 | 0.0243 | 0.0278 | 0.521 | 0.361 | 0.417 | 0.414 | 0.185 | 0.751 | 0.567 | 0.245 | 0.052 | 0.0296 |
| NCI-H520 | 0.255 | 0.263 | 0.249 | 0.223 | 0.224 | 0.21 | 0.244 | 0.233 | 0.201 | 0.227 | 0.188 | 0.219 | 0.177 | 0.131 | 0.634 | 0.732 | 0.764 | 0.491 | 0.306 |
| NCI-H1563 | 0.749 | 0.8 | 0.674 | 0.614 | 0.492 | 0.516 | 0.542 | 0.474 | 0.48 | 0.505 | 0.453 | 0.437 | 0.461 | 0.578 |  |  |  |  |  |
| NCI-H1623 | 0.459 | 0.416 | 0.502 | 0.427 | 0.486 | 0.503 | 0.461 | 0.439 | 0.835 | 0.516 | 0.469 | 0.516 | 0.527 | 0.498 |  |  |  |  |  |
| NCI-H1648 | 0.233 | 0.273 | 0.249 | 0.238 |  |  |  |  |  |  |  |  |  |  | 0.65 | 0.336 | 0.345 | 0.342 | 0.208 |
| NCI-H1792 | 0.764 | 0.68 | 0.688 | 0.514 | 0.286 | 0.487 | 0.405 | 0.286 | 0.331 | 0.746 | 0.79 | 0.768 | 0.464 | 1.13 |  |  |  |  |  |

Source: the supplement of paper PMC10307832
